# Test results reported in US20150051246A1 (priority 2013, published 2015).
# How the values were obtained:
# male Wistar rats = test: Object recognition task (ORT), scopolamine induced memory deficit; type: in vivo
# Experimental: Memory acquisition processes are investigated using the object recognition test (ORT).
# Twenty four 3-4 month old male Wistar rats (Charles River, Sulzfeld, Germany) were used for the study. All animals were housed individually in standard green line Tecniplast IVC cages on stardust bedding. The animals were housed on a reversed 12/12 h light/dark cycle (lights on from 07:00 pm to 07:00 am) and had free access to food and water. The rats were housed and tested in the same room. A radio, playing softly, provided background noise in the room. All testing was performed between 09:00 am and 06:00 pm.
# Drugs were prepared daily, except as indicated otherwise. Roflumilast (Takeda, Konstanz, Germany, MW 403.21) was dissolved in 98% methylcellulose solution (0.5% methylcellulose) and 2% Tween 80. Roflumilast in doses of 0 (vehicle), 0.0001, 0.0003, 0.001, 0.003, 0.01 and 0.03 mg/kg was administered intraperitonally (ip, injection volume 1 ml/kg). […] All compounds were administered 30 min before T1.
# The testing order of conditions was determined randomly. The experimenter was blind of testing protocol. A within design was used and all treatment conditions were balanced over rats. The ORT was performed as described elsewhere (Ennaceur and Delaceur, 1988, Behav Brain Res, Vol 31, pp 47-59; Akkerman et al; 2012, Behav Brain Res, Vol 232, pp 335-347). The apparatus consisted of a circular arena, 83 cm in diameter. The back half of the 40 cm high wall was made of grey PVC and the front was made of transparent PVC. Fluorescent red tubes and a light bulb provided a constant illumination of about 20 lux on the floor of the apparatus. The light intensity was equal in the different parts of the apparatus.
# Two objects were placed in symmetrical positions at the mid-line between the gray and transparent halves of the arena, about ten centimeters away from wall. Four different sets of objects were available: 1) a standard 1 L brown transparent glass bottle (diameter 10 cm, height 22 cm) filled with water, 2) a metal cube (10.0×5.0×7.5 cm) with two holes (diameter 1.9 cm), 3) a cone consisting of a gray PVC base (maximal diameter 18 cm) with a collar on top made of brass (total height 16 cm), and 4) an aluminum cube with a tapering top (13.0×8.0×8.0 cm). Objects were presented to the animals in a balanced manner to avoid object or place biases. Rats were unable to displace the objects.
# A test session comprised two trials, each with durations of 3 min. During the learning trial (T1) the apparatus contains two identical objects (object a1 and a2). Rats were always introduced into the apparatus with their nose towards the transparent wall segment (i.e. facing outwards to the front of the arena). Subsequently, rats were put back in its home cage for a 1 h interval. After the retention interval, rats were put back into the arena for the […] (T2). In T2, the two objects from T1 were replaced by one identical copy (a3) and a different novel object (b). The times spent in exploring each object during T1 and T2 were recorded manually on a personal computer.
# Exploration was defined in the following manner: directing the nose to the object at a distance of no more than 2 cm and/or touching the object with the nose. Sitting on the object was not considered as exploratory behavior. In order to avoid the presence of olfactory cues, the objects were thoroughly cleaned with a 70% ethanol solution before each trial.
# Prior to compound testing, the animals were handled for 5 min on 2 consecutive days and allowed to explore the ORT arena, also for 5 min. Subsequently, the animals were accustomed to the complete ORT testing procedure without receiving any injection.
# The readout parameters of the object recognition task are the times that rats spent on exploring each object during T1 and T2. The exploration time (in seconds) of each object during T1 are presented as “a1” and “a2”.
# [1] = tested on: 60 to 80 years old subjects; test: Bond-Lader Visual Analogue Scales (BL-VAS) in elderly subjects; type: in vivo, human; details: 45 min after the low dose
# Source text: Bond-Lader Visual Analogue Scales (BL-VAS): The BL-VAS (Bond A and Lader M, 1974; Br J Med Psycho) Vol 47, pp. 211-218) will be used in order to assess alertness, calmness, and contentedness. BL-VAS consists of 16 100 mm visual analogue scales anchored by antonyms (e.g. Alert-Drowsy, Lethargic-Energetic; etc) and be applied on testing Day 1 and 2 of each treatment period.
# An interim analysis has been performed based on the data of 9 subjects of the Impaired Elderly group and 4 subjects of the Healthy Elderly group. For this purpose, cognitive battery test scores (VLT, SMT, Stroop task and BL-VAS) and concentrations of roflumilast and roflumilast-N-oxide in plasma have been analysed and summarized by dose over each scheduled sampling time using descriptive statistics.
smiles,measurement,setting,value
"O=C(Nc1c(Cl)cncc1Cl)c1ccc(OC(F)F)c(OCC2CC2)c1 [roflumilast, N-(3,5-dichloropyridin-4-yl)-3-cyclopropylmethoxy-4-difluoromethoxybenzamide]",effect on memory performance (in words),"male Wistar rats; 0.0001 mg/kg ip, scopolamine deficit",no effect on memory performance
same,effect on memory performance (in words),"male Wistar rats; 0.0003 mg/kg and 0.001 mg/kg, scopolamine deficit",intermediate memory improvement
same,effect on memory function (in words),"male Wistar rats; doses of 0.003 mg/kg and higher, scopolamine deficit",fully restore memory function
same,d2,"male Wistar rats; rat, in vivo",0.34
same,d2,"male Wistar rats; roflumilast 0.0001 mg/kg ip + scopolamine 0.1 mg/kg, 1 h retention",0.05
same,d2,"male Wistar rats; roflumilast 0.0003 mg/kg ip + scopolamine 0.1 mg/kg, 1 h retention",0.16
same,d2,"male Wistar rats; roflumilast 0.001 mg/kg ip + scopolamine 0.1 mg/kg, 1 h retention",0.27
same,d2,"male Wistar rats; roflumilast 0.003 mg/kg ip + scopolamine 0.1 mg/kg, 1 h retention",0.43
same,d2,"male Wistar rats; roflumilast 0.03 mg/kg ip + scopolamine 0.1 mg/kg, 1 h retention",0.30
same,d2,"male Wistar rats; scopolamine 0.1 mg/kg + roflumilast 0.0001 mg/kg ip, rof + dpz study",0.04
same,effect on memory function (in words),"male Wistar rats; single ip dose 0.003 mg/kg, scopolamine deficit",fully restore spatial memory function
same,effect on memory function (in words),"male Wistar rats; single ip doses 0.01, 0.03, 0.001 and 0.0003 mg/kg",increasingly less efficacy
same,"(subjective) alertness in comparison with placebo, BL-VAS scores",[1],significantly higher (subjective) alertness
